These results are taken from patent publication US11123353B2 (Zhejiang Chinese Medical University, priority 2019, dated 2021).

Several values for one entry are separate records, joined by “and”; a condition that tells them apart may be missing. Equal values may be shown once.

Data set [1] relates to PC-9/GR tumor-bearing nude mouse model. Nature of the data set: In vivo fluorescence imaging targeting test (DiR). On the set-up: species or system nude mice. To be noted: DiR 7.5 μg·mL^−1, 0.2 mL tail vein, within 24 h. The protocol: The nude mice with a body mass of approximately 25 g in the established PC-9/GR tumor-bearing nude mouse model were taken, and respectively injected with 0.2 mL of a DiR raw medicine, and DiR-coated RGD/R8-ERG/GEF-LIP and RGD/R8-ERG/GEF-LIP freeze-dried powder (DiR concentration: 7.5 μg·mL^−1) by tail vein injection, the nude mice were anesthetized with isoflurane at different time points, and placed in an in vivo imager to observe the distribution of liposome in vivo (Ex=748 nm, Em=780 nm, and exposure time: 2 s). After 24 h, after the last in vivo imaging was finished, the nude mice were killed, and the heart, liver, spleen, lung, kidney and tumor were taken out and placed in the in vivo imager to observe the distribution of liposome in the in vitro tissues. […] It is speculated that the particle size of freeze-dried powder is smaller than that of RGD/R8-ERG/GEF-LIP, which increases the probability of entering the tumor cells to a certain extent and increases the tumor targeting effect in vivo.

For another data set, the system named is A549 cells. Nature of the data set: Cell cycle by PI flow cytometry, A549 cells. To be noted: A549, 48 h. The format is cell-based, human. As to the method: (§1) The number of cells in logarithmic growth phase was adjusted to 1.5×10^5·mL^−1, the cells were inoculated into a 6-well culture plate, and cultured in a 37° C. 5% CO2 incubator until 80% of the cells were fused and then a drug was added for treatment. […] After the drug acted for 48 h, a supernatant and cells were collected, centrifuged at 800 rpm·min^−1 for 10 min, washed once with PBS and fixed overnight with 75% ice ethanol, ethanol was discarded by centrifuging, and the cells were washed twice with PBS. The PBS was discarded, each sample was added with 0.5 ml of a PI staining solution to stain for 15 min at room temperature in the dark, and placed on a flow cytometer for measuring the proportion of cells in each cycle. The experiment was repeated 3 times.

A further data set deals with PC-9 cells. Nature of the data set: Cell cycle by PI flow cytometry, PC-9 cells. The class given is cell-based, human. To be noted: PC-9, 48 h. As to the method: as §1
[…]. Other operations were the same as above.
In general terms: A flow cytometer gives signals particle by particle.

The nature of data set [2]: In vitro release of GEF by dialysis in different pH release media. To be noted: for cumulative release percentage of GEF: 37° C., listed as GEF raw medicine. The class given is physicochemical. The protocol: Due to its high lipid solubility, ERG could be dissolved in pure methanol or pure ethanol. However, the membranes of the liposomes directly ruptured in pure methanol or pure ethanol, and a release medium was difficult to meet the “sink” condition of ERG. Therefore, the in vitro release of ERG was not investigated in the experiment. […] Therefore, the in vitro release of GEF drug under different pH conditions was investigated in the experiment. […] Calculation was carried out according to the following formula: Cumulative release percentage Q (%)=(c1×V0+Σn=1^t-1Cv)/M0×100%
In the experiment, the in vitro release of GEF drug under different pH conditions was investigated. […] For specific operation, please refer to “5.7 Release Rate” in Part II in details.

The subject of data set [3] is PC-9/GR lung cancer xenografts. Nature of the data set: Preliminary pharmacodynamic test in PC-9/GR tumor-bearing nude mice. The class given is in vivo, BABL/C nude mouse.
Protocol: A PC-9/GR lung cancer cell line was digested from a culture flask, and then resuspended in 0.9% normal saline, and the cell concentration was adjusted to 2.5×10^7·mL^−1 and the cell was inoculated into the left axilla of BABL/C nude mouse. Each nude mouse was inoculated with 0.2 mL of a cell suspension.
The nude mice in each group were administered by tail vein injection.
After starting administration, the body mass of the nude mouse was regularly measured once, and the longest and shortest diameters of the tumor were measured with a vernier caliper to calculate the volume of the tumor. After consecutively administrating 7 times, the tumor volume of each group was measured and the tumor inhibitory rate of each administration group was calculated. Tumor volume (mm^3)=½×Long diameter (mm)×Short diameter (mm)^2
Tumor inhibitory rate (%)=(Average tumor weight of model control group (mg)—Average tumor weight of administration group (mg))/Average tumor weight of model control group (mg)×100%

`CCCCCCCCCCCCCCCCCCN1/C(=C/C=C/C=C/C=C/C2=[N+](CCCCCCCCCCCCCCCCCC)c3ccccc3C2(C)C)C(C)(C)c2ccccc21.[I-]` [DiR raw medicine]: the “fluorescence accumulation in the tumor site” value in data set [1] is recorded as “not accumulated in the tumor site”.
On to `CC(C)[C@@H](C)/C=C/[C@@H](C)[C@H]1CC[C@H]2C3=CC=C4C[C@@H](O)CC[C@]4(C)[C@H]3CC[C@]12C` [ERG, ergosterol], for which the S phase fraction in the data set with A549 cells (ERG 20 μM) was 32.05±2.27%; in the data set on PC-9 cells (ERG 40 μM, ERG+GEF 40+5 μM), 26.93±2.02%. Also, the G2/M phase fraction in the data set with PC-9 cells (ERG 40 μM) is listed as 13.58±1.80%.
For the molecule `COc1cc2ncnc(Nc3ccc(F)c(Cl)c3)c2cc1OCCCN1CCOCC1` [GEF, gefitinib], the “cumulative release percentage of GEF” value in data set [2] (pH 6.4 40% methanol-containing phosphate buffer, 24 h) is 98.91% and 99.12%; in data set [2] (pH 7.4 40% methanol-containing phosphate buffer, within 24 h), 76.91% and 81.10%. The release model fitting result was “conforms to the first-order kinetic equation” in data set [2] (pH 6.4 release medium (FIG. 12)), “more in line with the first-order model” in data set [2] (pH 6.4 release medium (FIG. 25; freeze-dried powder first 4 h)), “closer to the Higuchi equation” in data set [2] (pH 7.4 release medium (FIG. 12)) and “more in line with the Higuchi model” in data set [2] (pH 7.4 release medium (FIG. 25; freeze-dried powder first 4 h)). Further, the “fitting correlation coefficient of the first-order kinetic equation” value in data set [2] (pH 7.4 release medium) was 0.9952. Further, the G0/G1 phase fraction was found to be 72.60±0.81% with A549 cells (GEF 20 μM, combination of two drugs) and 78.35±1.58% in the data set on PC-9 cells (GEF 5 μM, ERG+GEF 40+5 μM). Moreover, in data set [3] (compared with the model control group), the average tumor weight result is “highly significant difference”. Further, the tumor volume change result in data set [3] (course over 15 days of administration) is given as “rapid growth trend after the 9th day of administration”.
